From patent publication US20160375006A1, “USES OF PARALOG-SELECTIVE INHIBITORS OF GSK3 KINASES” (priority 2012, published 2016)

Legend:
CaMK2β = CaMK2β (Homo sapiens, UniProt Q13554)
Method: (§1) This was completed utilizing one of two assays depending on the kinase being examined.
(§2) A solution of IMAP binding reagent (IMAP Screening Express kit; Molecular Devices) (60 μL) was added to each well and incubated for 30 minutes.
(§3) A solution of termination buffer (QuickScout Screening assist MSA; Carna Biosciences) (60 μL) was added to each well. The entire reaction mixture was then applied to a LabChip3000 system (Caliper Life Science) and the product and substrate peptide peaks were separated and quantified.
(§4) The assay utilized was identical to that of the single point inhibitory activity determination (MSA) but run in dose response. […] A solution of termination buffer (QuickScout Screening assist MSA; Carna Biosciences) (60 μL) was added to each well. The entire reaction mixture was then applied to a LabChip3000 system (Caliper Life Science) and the product and substrate peptide peaks were separated and quantified.

PAK1 = PAK1 (Homo sapiens, UniProt Q13153)
Method: as §2, §3, §4

PKD3 = PKD3 (Homo sapiens, UniProt O94806)
Method: as §1, §2, §3

PAK2 = PAK2 (Homo sapiens, UniProt Q13177)
Method: as §1, §2, §3, §4

PGK = PGK (Homo sapiens, UniProt Q13976)
Method: as §1, §2, §3, §4

PKCθ = PKCθ (Homo sapiens, UniProt Q04759)
Method: as §1, §2, §3

PKCζ = PKCζ (Homo sapiens, UniProt Q05513)
Method: as §1, §2, §3, §4

MLK1_Cascade = MLK1_Cascade (Homo sapiens, UniProt P80192)
Method: as §1, §3
(§5) The assay utilized was identical to that of the single point inhibitory activity determination (MSA) but run in dose response.

JNK2 = JNK2 (Homo sapiens, UniProt P45984)
Sequence of JNK2 (P45984 whole entry): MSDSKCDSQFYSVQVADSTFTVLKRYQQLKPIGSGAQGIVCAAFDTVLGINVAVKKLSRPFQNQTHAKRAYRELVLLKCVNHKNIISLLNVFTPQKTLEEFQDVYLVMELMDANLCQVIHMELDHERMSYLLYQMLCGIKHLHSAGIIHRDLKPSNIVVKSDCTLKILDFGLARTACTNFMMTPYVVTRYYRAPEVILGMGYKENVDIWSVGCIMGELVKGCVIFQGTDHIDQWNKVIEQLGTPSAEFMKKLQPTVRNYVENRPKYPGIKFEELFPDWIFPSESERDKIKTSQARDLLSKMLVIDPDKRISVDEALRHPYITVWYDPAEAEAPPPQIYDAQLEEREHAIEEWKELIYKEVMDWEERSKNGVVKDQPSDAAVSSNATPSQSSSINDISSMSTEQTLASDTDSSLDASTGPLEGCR
Method: as §1, §2, §3, §4

MAP2K2_Cascade = MAP2K2_Cascade (Homo sapiens, UniProt P36507)
Method: as §1, §2, §3

FGFR4(N535K) = FGFR4(N535K) (Homo sapiens, UniProt P22455, N535K)
Method: as §1, §2, §3

PDK1 = PDK1 (Homo sapiens, UniProt O15530)
Method: as §1, §2, §3, §4

[1] = tested on: audiogenic seizure phenotype; conditions: Fmr1 KO mice, single dose 30 mg/kg i.p.
FGFR4(V550E) = FGFR4(V550E) (Homo sapiens, UniProt P22455, V550E)
Method: as §1, §2, §3, §4

FGFR3(K650M) = FGFR3(K650M) (Homo sapiens, UniProt P22607, K650M)
Sequence of FGFR3(K650M) (P22607 23-806 K650M): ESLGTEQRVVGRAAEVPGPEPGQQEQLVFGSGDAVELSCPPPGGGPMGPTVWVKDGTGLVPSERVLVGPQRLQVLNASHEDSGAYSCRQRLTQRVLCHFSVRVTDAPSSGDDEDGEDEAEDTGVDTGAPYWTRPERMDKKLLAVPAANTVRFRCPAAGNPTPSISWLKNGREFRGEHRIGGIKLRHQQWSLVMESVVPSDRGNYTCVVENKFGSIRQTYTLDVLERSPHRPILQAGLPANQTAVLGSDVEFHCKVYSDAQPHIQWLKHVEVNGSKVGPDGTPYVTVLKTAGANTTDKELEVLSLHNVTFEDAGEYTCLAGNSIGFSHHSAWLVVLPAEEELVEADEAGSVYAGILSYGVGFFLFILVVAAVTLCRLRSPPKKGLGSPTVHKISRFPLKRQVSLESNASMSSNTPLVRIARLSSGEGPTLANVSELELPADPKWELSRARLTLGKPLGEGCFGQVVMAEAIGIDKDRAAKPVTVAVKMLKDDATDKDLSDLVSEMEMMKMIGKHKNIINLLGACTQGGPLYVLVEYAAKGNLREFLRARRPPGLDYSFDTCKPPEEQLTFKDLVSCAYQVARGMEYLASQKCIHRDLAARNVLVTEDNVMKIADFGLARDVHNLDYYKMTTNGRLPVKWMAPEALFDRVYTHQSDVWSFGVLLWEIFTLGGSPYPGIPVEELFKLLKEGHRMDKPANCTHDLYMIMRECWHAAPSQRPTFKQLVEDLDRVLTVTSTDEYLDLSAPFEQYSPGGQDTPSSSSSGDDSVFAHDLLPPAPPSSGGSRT
Method: as §2, §3, §4

[2] = tested on: pGSK3α/β, β-catenin, CRMP2 in SH-SY5Y cells; conditions: SH-SY5Y cells, 1, 5, 10 and 30 μM, 24 hours
Method: The samples were incubated and gently rocked for 1 h before centrifuged at 12 000 g for 10 min. The supernatant total cell lysate was subject to subsequent western blot analysis. […] Membranes were incubated overnight with primary antibodies in a solution of Tris-buffered saline containing Tween 20 (TBST, Sigma) and 5% dry milk. Incubation of secondary antibodies was performed for 1 h at room temperature in a solution of 5% dry milk in TBST.

SRM = SRM (Homo sapiens, UniProt Q9H3Y6)
Sequence of SRM (Q9H3Y6 whole entry): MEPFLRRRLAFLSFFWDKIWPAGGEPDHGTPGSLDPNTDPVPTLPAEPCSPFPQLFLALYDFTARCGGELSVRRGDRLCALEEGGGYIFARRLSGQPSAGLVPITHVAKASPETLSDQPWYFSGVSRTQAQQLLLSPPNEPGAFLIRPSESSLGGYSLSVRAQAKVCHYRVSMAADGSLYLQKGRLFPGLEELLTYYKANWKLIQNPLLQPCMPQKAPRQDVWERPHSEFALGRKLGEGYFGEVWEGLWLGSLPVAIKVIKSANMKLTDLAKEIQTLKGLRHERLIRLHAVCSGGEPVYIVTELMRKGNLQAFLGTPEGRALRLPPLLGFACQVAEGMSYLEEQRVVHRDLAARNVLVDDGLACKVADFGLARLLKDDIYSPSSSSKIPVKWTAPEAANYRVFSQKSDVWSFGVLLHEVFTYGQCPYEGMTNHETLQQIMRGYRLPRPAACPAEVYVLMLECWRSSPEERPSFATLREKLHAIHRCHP
Method: as §1, §2, §3, §4

RSK1 = RSK1 (Homo sapiens, UniProt Q15418)
Method: as §1, §2, §3

MAP2K4_Cascade = MAP2K4_Cascade (Homo sapiens, UniProt P45985)
Sequence of MAP2K4_Cascade (P45985 2-399 limits assumed): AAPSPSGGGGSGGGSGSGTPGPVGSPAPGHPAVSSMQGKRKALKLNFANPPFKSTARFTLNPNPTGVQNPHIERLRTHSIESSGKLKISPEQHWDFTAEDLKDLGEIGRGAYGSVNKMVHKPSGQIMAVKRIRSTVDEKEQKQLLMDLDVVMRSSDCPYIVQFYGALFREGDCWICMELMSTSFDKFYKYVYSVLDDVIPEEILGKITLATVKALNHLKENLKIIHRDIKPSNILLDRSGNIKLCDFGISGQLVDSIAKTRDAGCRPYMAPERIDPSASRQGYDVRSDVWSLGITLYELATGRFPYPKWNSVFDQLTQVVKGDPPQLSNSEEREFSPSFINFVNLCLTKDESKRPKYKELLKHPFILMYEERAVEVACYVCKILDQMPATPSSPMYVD
Method: as §1, §2, §3, §4

[3] = tested on: protein synthesis in hippocampal slices; conditions: Fmr1 knockout mice hippocampal slices, 10 μM
Method: 500 um hippocampal slices are recovered in ACSF for 3 hours, followed by incubation in GSK3ai or vehicle for an hour, with Actinomycin D (to block transcription) for the last half hour of drug incubation. Slices are then transferred to new chambers containing ACSF with drug/vehicle and S35 (a radiolabeled Met/Cys) for 30 minutes to measure protein synthesis. Slices are then processed and read in a scintillation counter to determine the rate of protein synthesis.

PLK1 = molecular target: T1, PLK1 (Homo sapiens, UniProt P53350); experiment: Carna kinase panel; format: biochemical
T1 construct: purchased Carna Biosciences
T1 sequence (P53350 whole entry): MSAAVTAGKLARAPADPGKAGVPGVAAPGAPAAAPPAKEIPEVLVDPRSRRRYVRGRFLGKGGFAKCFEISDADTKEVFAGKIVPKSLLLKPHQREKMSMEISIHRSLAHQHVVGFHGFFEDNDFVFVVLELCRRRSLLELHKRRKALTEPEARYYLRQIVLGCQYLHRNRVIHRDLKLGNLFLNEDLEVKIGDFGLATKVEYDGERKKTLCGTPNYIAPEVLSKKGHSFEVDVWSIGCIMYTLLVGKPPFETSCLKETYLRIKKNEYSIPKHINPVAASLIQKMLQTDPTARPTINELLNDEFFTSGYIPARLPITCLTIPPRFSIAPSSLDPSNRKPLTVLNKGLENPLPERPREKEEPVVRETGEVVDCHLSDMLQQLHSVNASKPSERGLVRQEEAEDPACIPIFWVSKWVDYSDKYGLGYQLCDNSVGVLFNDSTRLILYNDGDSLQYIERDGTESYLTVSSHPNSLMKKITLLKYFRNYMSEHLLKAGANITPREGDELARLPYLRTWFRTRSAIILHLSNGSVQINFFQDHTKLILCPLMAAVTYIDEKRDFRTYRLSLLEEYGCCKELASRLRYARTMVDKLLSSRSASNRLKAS
Method: as §1, §2, §3

PEK = PEK (Homo sapiens, UniProt Q9NZJ5)
Sequence of PEK (Q9NZJ5 30-1116): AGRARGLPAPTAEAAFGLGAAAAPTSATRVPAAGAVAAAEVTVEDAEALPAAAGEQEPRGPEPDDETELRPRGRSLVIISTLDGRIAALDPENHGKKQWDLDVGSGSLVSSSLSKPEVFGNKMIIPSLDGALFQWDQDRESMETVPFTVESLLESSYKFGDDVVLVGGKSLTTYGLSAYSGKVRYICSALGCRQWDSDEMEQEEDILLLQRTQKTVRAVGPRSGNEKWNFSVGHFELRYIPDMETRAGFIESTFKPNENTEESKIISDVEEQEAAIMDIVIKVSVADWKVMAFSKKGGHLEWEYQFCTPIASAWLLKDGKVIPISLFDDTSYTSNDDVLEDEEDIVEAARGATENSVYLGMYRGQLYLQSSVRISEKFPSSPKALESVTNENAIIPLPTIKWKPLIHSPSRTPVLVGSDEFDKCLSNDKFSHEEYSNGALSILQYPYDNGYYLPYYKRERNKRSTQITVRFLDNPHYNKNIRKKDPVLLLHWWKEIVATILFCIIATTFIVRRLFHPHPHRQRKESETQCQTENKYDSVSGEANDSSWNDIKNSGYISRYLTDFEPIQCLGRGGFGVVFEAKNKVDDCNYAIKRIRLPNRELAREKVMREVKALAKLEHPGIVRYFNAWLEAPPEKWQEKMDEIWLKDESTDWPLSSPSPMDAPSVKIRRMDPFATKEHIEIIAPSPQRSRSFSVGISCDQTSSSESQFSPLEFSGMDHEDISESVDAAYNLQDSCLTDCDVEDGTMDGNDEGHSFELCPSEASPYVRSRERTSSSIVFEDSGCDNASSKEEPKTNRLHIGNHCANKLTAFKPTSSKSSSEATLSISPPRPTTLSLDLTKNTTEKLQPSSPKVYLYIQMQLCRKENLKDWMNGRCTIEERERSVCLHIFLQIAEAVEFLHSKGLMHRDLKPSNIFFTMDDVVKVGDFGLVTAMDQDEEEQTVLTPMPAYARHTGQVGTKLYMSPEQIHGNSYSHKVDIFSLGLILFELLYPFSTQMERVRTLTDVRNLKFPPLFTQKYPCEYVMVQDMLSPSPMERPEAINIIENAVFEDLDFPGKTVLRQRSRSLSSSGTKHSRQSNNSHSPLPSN
Method: as §1, §2, §3

IKKε = IKKε (Homo sapiens, UniProt Q14164)
Method: as §1, §2, §3, §4

RET(M918T) = RET(M918T) (Homo sapiens, UniProt P07949, M918T)
Method: as §1, §2, §3, §4

PAK6 = PAK6 (Homo sapiens, UniProt Q9NQU5)
Method: as §1, §2, §3, §4

AMPKα2/β1/γ1 = AMPKα2/β1/γ1 (Homo sapiens, UniProt P54646)
Method: as §1, §3, §5

ITK = ITK (Homo sapiens, UniProt Q08881)
Method: as §1, §2, §3, §4

LIMK1 = molecular target: T2, LIMK1 (Homo sapiens, UniProt P53667); experiment: Carna kinase panel; format: biochemical
T2 construct: purchased Carna Biosciences
Method: as §1, §2, §3

LKB1 = LKB1 (Homo sapiens, UniProt Q15831)
MET(D1228H) = MET(D1228H) (Homo sapiens, UniProt P08581, D1228H)
WEE1 = WEE1 (Homo sapiens, UniProt P30291)
PLK4 = PLK4 (Homo sapiens, UniProt O00444)
TTK = TTK (Homo sapiens, UniProt P33981)
GSK3α = GSK3α (Homo sapiens, UniProt P49840)
Sequence of GSK3α (P49840 whole entry): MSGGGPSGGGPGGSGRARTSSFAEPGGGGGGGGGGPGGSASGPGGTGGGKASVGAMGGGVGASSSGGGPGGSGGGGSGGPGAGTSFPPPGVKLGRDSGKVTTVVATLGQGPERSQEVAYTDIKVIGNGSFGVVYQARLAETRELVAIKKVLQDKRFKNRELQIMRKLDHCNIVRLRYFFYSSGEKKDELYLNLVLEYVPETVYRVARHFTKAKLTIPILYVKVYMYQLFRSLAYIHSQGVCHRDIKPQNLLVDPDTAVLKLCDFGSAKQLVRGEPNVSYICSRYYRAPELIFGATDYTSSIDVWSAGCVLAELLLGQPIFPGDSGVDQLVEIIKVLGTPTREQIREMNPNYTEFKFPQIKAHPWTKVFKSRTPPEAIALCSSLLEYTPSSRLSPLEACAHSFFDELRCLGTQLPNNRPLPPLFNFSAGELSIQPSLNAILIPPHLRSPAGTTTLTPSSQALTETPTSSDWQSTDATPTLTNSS
Method: as §1, §2, §3, §4

BMPR1A = BMPR1A (Homo sapiens, UniProt P36894)
KIT(D816E) = KIT(D816E) (Homo sapiens, UniProt P10721, D816E)
MET(M1250T) = MET(M1250T) (Homo sapiens, UniProt P08581, M1250T)

Sequence of PGK (Q13976 whole entry): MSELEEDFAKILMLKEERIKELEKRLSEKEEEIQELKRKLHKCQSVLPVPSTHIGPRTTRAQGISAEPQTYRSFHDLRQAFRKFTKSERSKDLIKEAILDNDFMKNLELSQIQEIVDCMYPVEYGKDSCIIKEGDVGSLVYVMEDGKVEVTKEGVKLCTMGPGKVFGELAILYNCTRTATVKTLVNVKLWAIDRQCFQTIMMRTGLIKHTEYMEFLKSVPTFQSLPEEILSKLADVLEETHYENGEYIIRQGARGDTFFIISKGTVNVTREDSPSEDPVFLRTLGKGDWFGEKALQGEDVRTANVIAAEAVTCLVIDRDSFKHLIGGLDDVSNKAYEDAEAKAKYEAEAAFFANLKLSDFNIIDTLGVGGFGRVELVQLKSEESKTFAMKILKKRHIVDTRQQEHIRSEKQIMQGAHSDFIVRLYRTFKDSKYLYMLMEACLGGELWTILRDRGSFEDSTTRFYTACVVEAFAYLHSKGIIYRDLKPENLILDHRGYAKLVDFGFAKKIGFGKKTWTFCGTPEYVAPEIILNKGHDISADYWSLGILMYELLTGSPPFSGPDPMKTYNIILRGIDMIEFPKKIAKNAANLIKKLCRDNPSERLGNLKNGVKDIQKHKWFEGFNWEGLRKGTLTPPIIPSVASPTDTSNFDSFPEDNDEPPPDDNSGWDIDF

Compound: CC[C@@]1(c2ccccc2)C2=C(CC(C)(C)CC2=O)Nc2n[nH]cc21 [BRD0705]
- % Inhibition at 10 μM (CaMK2β): −9.0%
- % Inhibition at 10 μM (PAK1): −2.9%
- % Inhibition at 10 μM (PKD3): 3.9%
- % Inhibition at 10 μM (PAK2): 6.4%
- % Inhibition at 10 μM (PGK): −2.1%
- % Inhibition at 10 μM (PKCθ): −12.0%
- % Inhibition at 10 μM (PKCζ): −1.0%
- % Inhibition at 10 μM (MLK1_Cascade): 6.3%
- % Inhibition at 10 μM (JNK2): −2.5%
- % Inhibition at 10 μM (MAP2K2_Cascade): 1.3%
- % Inhibition at 10 μM (FGFR4(N535K)): 22.1%
- % Inhibition at 10 μM (PDK1): −6.7%
- Audiogenic seizure phenotype [1]: reduces audiogenic seizures
- % Inhibition at 10 μM (FGFR4(V550E)): −0.5%
- % Inhibition at 10 μM (FGFR3(K650M)): −2.7%
- pGSK3αY279 level (Western blot) [2]: dose dependent decrease
- pGSK3βY216 and β-catenin levels (Western blot) [2]: without effecting
- % Inhibition at 10 μM (SRM): −5.5%
- % Inhibition at 10 μM (RSK1): −6.4%
- % Inhibition at 10 μM (MAP2K4_Cascade): −3.0%
- Excess protein synthesis [3]: correction of excess protein synthesis
- % Inhibition at 10 μM (PLK1): −12.3%
- % Inhibition at 10 μM (PEK): 1.7%
- % Inhibition at 10 μM (IKKε): −4.5%
- % Inhibition at 10 μM (RET(M918T)): −2.9%
- % Inhibition at 10 μM (PAK6): −10.7%
- % Inhibition at 10 μM (AMPKα2/β1/γ1): 5.1%
- % Inhibition at 10 μM (ITK): 0.3%

Compound: CC(C)(C)Cc1[nH]nc2c1[C@](C)(c1ccccc1)C1=C(CC(C)(C)CC1=O)N2 [BRD3731]
- % Inhibition 10 μM (CaMK2β; 10 μM): 0.3%
- % Inhibition 10 μM (PAK1; 10 μM): −18.6%
- % Inhibition 10 μM (PKD3; 10 μM): 2.6%
- % Inhibition 10 μM (PAK2; 10 μM): 0.0%
- % Inhibition 10 μM (PGK; 10 μM): 1.9%
- % Inhibition 10 μM (PKCθ; 10 μM): 12.1%
- % Inhibition 10 μM (LIMK1): 7.5%
- % Inhibition 10 μM (PKCζ; 10 μM): 5.0%
- % Inhibition 10 μM (MLK1_Cascade; 10 μM): −9.4%
- % Inhibition 10 μM (LKB1): 3.4%
- % Inhibition 10 μM (JNK2; 10 μM): −3.9%
- % Inhibition 10 μM (MET(D1228H)): 0.0%
- % Inhibition 10 μM (MAP2K2_Cascade; 10 μM): −0.4%
- % Inhibition 10 μM (PDK1; 10 μM): 2.0%
- % Inhibition 10 μM (WEE1): −9.1%
- % Inhibition 10 μM (PLK4): 14.3%
- % Inhibition 10 μM (TTK): 5.4%
- % Inhibition 10 μM (FGFR4(V550E); 10 μM): 0.1%
- % Inhibition 10 μM (FGFR3(K650M); 10 μM): 0.8%
- % Inhibition 10 μM (SRM; 10 μM): 0.9%
- % Inhibition 10 μM (GSK3α): 96.8%
- Fold Selectivity (GSK3α): 7.8 fold
- IC50 (GSK3α): 211 nM
- % Inhibition 10 μM (BMPR1A): −4.4%
- % Inhibition 10 μM (RSK1; 10 μM): 23.4%
- % Inhibition 10 μM (MAP2K4_Cascade; 10 μM): 7.6%
- % Inhibition 10 μM (KIT(D816E)): 3.9%
- % Inhibition 10 μM (MET(M1250T)): 0.8%
- % Inhibition 10 μM (PLK1; 10 μM): −0.7%
- % Inhibition 10 μM (PEK; 10 μM): 1.4%
- % Inhibition 10 μM (IKKε; 10 μM): −1.4%
- % Inhibition 10 μM (RET(M918T); 10 μM): −2.2%
- % Inhibition 10 μM (PAK6; 10 μM): −46.8%
- % Inhibition 10 μM (AMPKα2/β1/γ1; 10 μM): 16.7%
- % Inhibition 10 μM (ITK; 10 μM): 2.8%
